Reference: patent US20250296938A1, “Compounds that Interact with the Ras Superfamily for the Treatment of Cancers, Inflammatory Diseases, Rasopathies, and Fibrotic Disease” (SHY Therapeutics, LLC, priority 2018, published 2025)

Tests used:
IL-6 = assay: Mouse IL6 quantification assay, LPS-stimulated RAW 264.7 macrophages; assay type: cell-based; conditions: for inhibition at 10 µM: RAW264.7, 10 μM, LPS (100 ng/ml) added concurrently, 5 hours, RAW 264.7
Method: (§1) Cell lines: Abelson murine leukemia virus transformed macrophage cell line RAW 264.7 was purchased from ATCC and grown in complete DMEM-High Glucose medium supplemented with penicillin (100 U/mL), streptomycin (100 μg/mL), and 10% heat-inactivated FBS at 37° C. in a humidified incubator with 5% CO2.
(§2) Method: Cells were plated at 25000-40000 cells/well density in a 96-well plate. After a 3-hour incubation, macrophages were starved with DMEM plus 0.5% FBS overnight. The next day the small molecules to be tested were added to the cells in the final concentration of 30 μM (with 0.3% DMSO) 3 hours prior to LPS stimulation (100 ng/ml). After LPS stimulation cells were incubated at 37° C. for 16 h. Alternatively, compounds were also tested at 10 μM and LPS (100 ng/ml) was added concurrently and incubated 5 hours at 37° C. At the end of the incubation periods, culture medium was collected and production of LPS-induced TNF-α and IL-6 cytokine was measured using ELISA detection kits.
(§3) Sandwich ELISA: The ELISA Immunoassays Quantikine Mouse TNF-alpha (catalog number MTA00B) and IL6 (catalog number M6000B) were purchased from R&D Systems Inc., Minneapolis, MN. These 4.5 hours solid phase ELISAs were used to measure mouse TNF-α or IL-6 levels in macrophages culture supernatants. Assays were executed according to the manufacturer specifications.

TNF-α = assay: Mouse TNF alpha quantification assay, LPS-stimulated RAW 264.7 macrophages; assay type: cell-based; conditions: for inhibition at 10 µM: RAW264.7, 10 μM, LPS (100 ng/ml) added concurrently, 5 hours, RAW 264.7, read-out: TNFα % Inhibition
Method: as §1, §2, §3

[1] = RAW264.7, 30 μM, LPS-stimulated RAW 264.7 macrophages

SMILES | inhibition at 30 µM (IL-6; [1]) | inhibition at 30 µM (TNF-α; [1]) | inhibition at 10 µM (IL-6) | inhibition at 10 µM (TNF-α)
COC(=O)c1nc(-c2nccn2C)nc(O)c1O [drawing 743] | 0% | 0% |  | 
COc1c(O)nc(-c2ccccn2)nc1Oc1ccc(C(=O)N(C)C)cc1 [drawing 744] |  |  | 1 to 25% | 1 to 25%
COc1c(O)nc(-c2ccccn2)nc1Nc1ccccc1 [drawing 745] |  |  | 76 to 100% | 1 to 25%
CCn1cc(Nc2nc(-c3ccccn3)nc(O)c2OC)cn1 [drawing 746] |  |  | 76 to 100% | 1 to 25%
CCOc1cccc(Nc2nc(-c3ccccn3)nc(O)c2OC)c1 [drawing 747] |  |  | 51 to 75% | 1 to 25%
COc1cccc(-c2sc3nc(-c4nccn4C)nc(NC4CCC(OC)C4)c3c2-c2ccccc2)c1F (centres unmarked) [drawing 748] |  |  | 76 to 100% | 76 to 100%
COc1cccc(-c2sc3nc(-c4nccn4C)nc(N[C@@H]4CC[C@H](OC)C4)c3c2-c2ccccc2)c1F [drawing 749] |  |  | 26 to 50% | 1 to 25%
COC1CCC(Nc2nc(-c3nccn3C)nc3sc(-c4cccc(O)c4F)c(-c4ccccc4)c23)C1 (centres unmarked) [drawing 750] |  |  | 0% | 0%
COc1c(F)cccc1-c1sc2nc(-c3nccn3C)nc(NC3CCC(OC)C3)c2c1-c1ccccc1 (centres unmarked) [drawing 751] |  |  | 1 to 25% | 0%
COc1c(F)cccc1-c1sc2nc(-c3nccn3C)nc(N[C@@H]3CC[C@H](OC)C3)c2c1-c1ccccc1 [drawing 752] |  |  | 0% | 0%
COC1CCC(Nc2nc(-c3nccn3C)nc3sc(-c4cccc5[nH]ncc45)c(-c4ccccc4)c23)C1 (centres unmarked) [drawing 753] |  |  | 76 to 100% | 51 to 75%
CO[C@H]1CC[C@@H](Nc2nc(-c3nccn3C)nc3sc(-c4cccc5[nH]ncc45)c(-c4ccccc4)c23)C1 [drawing 754] |  |  | 76 to 100% | 76 to 100%
COC1CCN(c2nc(-c3nccn3C)nc3sc(-c4cccc(O)c4F)c(-c4ccccc4)c23)C1 (centres unmarked) [drawing 755] |  |  | 26 to 50% | 1 to 25%
COc1cccc(-c2sc3nc(-c4nccn4C)nc(N[C@H]4C[C@@H](OC)C4)c3c2-c2ccccc2)c1F [drawing 756] |  |  | 76 to 100% | 51 to 75%
CO[C@H]1C[C@@H](Nc2nc(-c3nccn3C)nc3sc(-c4cnn(C)c4)c(-c4ccccc4)c23)C1 [drawing 757] |  |  | 51 to 75% | 1 to 25%
COc1cccc(-c2sc3nc(-c4nccn4C)nc(NC4CCC(OC)C4)c3c2C)c1F (centres unmarked) [drawing 758] |  |  | 1 to 25% | 0%
COc1cccc(-c2sc3nc(-c4nccn4C)nc(N[C@@H]4CC[C@H](OC)C4)c3c2C)c1F [drawing 759] |  |  | 1 to 25% | 1 to 25%
COC1CCC(Nc2nc(-c3nccn3C)nc3sc(-c4cccc5[nH]ncc45)c(C)c23)C1 (centres unmarked) [drawing 760] |  |  | 51 to 75% | 1 to 25%
COc1cccc(-c2sc3nc(-c4nc(C)cn4C)nc(N[C@@H]4CC[C@H](OC)C4)c3c2C)c1F [drawing 761] |  |  | 1 to 25% | 0%
CO[C@H]1CC[C@@H](Nc2nc(-c3nc(C)cn3C)nc3sc(-c4cccc5[nH]ncc45)c(C)c23)C1 [drawing 762] |  |  | 76 to 100% | 26 to 50%
COCCn1ccnc1-c1nc(O)c2scc(-c3ccc(OCC(C)C)nc3)c2n1 [drawing 763] |  |  | 26 to 50% | 1 to 25%
CC(C)COc1ccc(-c2csc3c(O)nc(-c4nccn4Cc4ccccn4)nc23)cn1 [drawing 764] |  |  | 76 to 100% | 1 to 25%
COc1cccc(Cn2ccnc2-c2nc(O)c3scc(-c4ccc(OCC(C)C)nc4)c3n2)c1 [drawing 765] |  |  | 76 to 100% | 1 to 25%
CO[C@H]1CC[C@@H](Nc2nc(-c3nccn3C)nc(C(=O)N3CCc4c(O)cccc4C3)c2C)C1 [drawing 766] |  |  | 0% | 1 to 25%
CO[C@H]1C[C@@H](Nc2nc(-c3ccccn3)nc3sccc23)C1 [drawing 767] |  |  | 1 to 25% | 1 to 25%

SMILES | inhibition at 30 µM (IL-6; [1]) | inhibition at 30 µM (TNF-α; [1]) | inhibition at 10 µM (IL-6) | inhibition at 10 µM (TNF-α)
CO[C@H]1C[C@@H](Nc2nc(-c3nccn3C)nc3sccc23)C1 [drawing 768] |  |  | 26 to 50% | 1 to 25%
Cn1ccc(-c2sc3nc(-c4nccn4C)nc(O)c3c2-c2ccccc2)n1 [drawing 769] |  |  | 51 to 75% | 1 to 25%
CO[C@H]1C[C@@H](Nc2nc(-c3nccn3C)nc3sc(-c4ccn(C)n4)c(-c4ccccc4)c23)C1 [drawing 770] |  |  | 76 to 100% | 76 to 100%
CO[C@H]1C[C@H](Nc2nc(-c3nccn3C)nc3sc(-c4ccn(C)n4)c(-c4ccccc4)c23)C1 [drawing 771] |  |  | 76 to 100% | 76 to 100%
CN(C)CCOCCNc1nc(-c2nccn2C)nc2sc(-c3ccn(C)n3)c(-c3ccccc3)c12 [drawing 772] |  |  | 76 to 100% | 26 to 50%
Cn1ccc(-c2sc3nc(-c4nccn4C)nc(N[C@H]4C[C@@H](O)C4)c3c2-c2ccccc2)n1 [drawing 773] |  |  | 26 to 50% | 0%
CO[C@H]1C[C@@H](Nc2nc(-c3ncc[nH]3)nc3sc(-c4ccn(C)n4)c(-c4ccccc4)c23)C1 [drawing 775] |  |  | 76 to 100% | 1 to 25%
CO[C@H]1CC[C@@H](Nc2nc(-c3ncc[nH]3)nc3sc(-c4ccn(C)n4)c(-c4ccccc4)c23)C1 [drawing 776] |  |  | 76 to 100% | 26 to 50%
CO[C@H]1CC[C@@H](Nc2nc(-c3nccn3C)nc3sc(-c4ccn(C(C)C)n4)c(-c4ccccc4)c23)C1 [drawing 777] |  |  | 76 to 100% | 76 to 100%
COc1nc(-c2ccccn2)nc2c(-c3ccccn3)csc12 [drawing 778] |  |  | 51 to 75% | 1 to 25%
CO[C@H]1C[C@@H](Nc2nc(-c3nccn3C)nc3sc(-c4ccn(C)n4)c(C)c23)C1 [drawing 779] |  |  | 76 to 100% | 1 to 25%
CO[C@H]1CC[C@@H](Nc2nc(-c3nccn3C)nc3sc(-c4ccn(C)n4)c(C)c23)C1 [drawing 780] |  |  | 76 to 100% | 1 to 25%
Cc1c(-c2ccn(C)n2)sc2nc(-c3nccn3C)nc(NCCCS(C)(=O)=O)c12 [drawing 781] |  |  | 1 to 25% | 1 to 25%
Cc1c(-c2ccn(C)n2)sc2nc(-c3nccn3C)nc(NCCCC(=O)N(C)C)c12 [drawing 782] |  |  | 1 to 25% | 1 to 25%
Cc1c(-c2ccn(C)n2)sc2nc(-c3nccn3C)nc(NCCOC(=O)N(C)C)c12 [drawing 783] |  |  | 51 to 75% | 26 to 50%
CO[C@H]1CC[C@@H](Nc2nc(-c3nccn3C)nc3sc(-c4ccn(C(C)C)n4)c(C)c23)C1 [drawing 784] |  |  | 51 to 75% | 26 to 50%
CO[C@H]1C[C@@H](Nc2nc(-c3nccn3C)nc3sc(C(=O)NC(C)C)c(-c4ccccc4)c23)C1 [drawing 785] |  |  | 1 to 25% | 0%
COCCNC(=O)c1sc2nc(-c3nccn3C)nc(N[C@H]3C[C@@H](OC)C3)c2c1-c1ccccc1 [drawing 786] |  |  | 26 to 50% | 0%
CO[C@H]1C[C@@H](Nc2nc(-c3nccn3C)nc3sc(C(=O)N4CCOCC4)c(-c4ccccc4)c23)C1 [drawing 787] |  |  | 1 to 25% | 1 to 25%
COC1CCN(C(=O)c2sc3nc(-c4nccn4C)nc(N[C@H]4C[C@@H](OC)C4)c3c2-c2ccccc2)C1 (some centres unmarked) [drawing 788] |  |  | 0% | 0%
CO[C@H]1CC[C@@H](Nc2nc(-c3nccn3C)nc3sc(C(=O)NC(C)C)c(-c4ccccc4)c23)C1 [drawing 789] |  |  | 51 to 75% | 1 to 25%
COCCNC(=O)c1sc2nc(-c3nccn3C)nc(N[C@@H]3CC[C@H](OC)C3)c2c1-c1ccccc1 [drawing 790] |  |  | 51 to 75% | 1 to 25%
CO[C@H]1CC[C@@H](Nc2nc(-c3nccn3C)nc3sc(C(=O)N4CCCC4)c(-c4ccccc4)c23)C1 [drawing 791] |  |  | 1 to 25% | 1 to 25%
CO[C@H]1CC[C@@H](Nc2nc(-c3nccn3C)nc3sc(C(=O)N4CCOCC4)c(-c4ccccc4)c23)C1 [drawing 792] |  |  | 26 to 50% | 1 to 25%
